Laboratory results taken from article PMC4381037 (The FEBS journal, 2009).

Biological target: T1, His6-RMDPa (Pseudomonas aeruginosa, UniProt Q9HTB6)
T1 sequence (Q9HTB6 2-304 limits assumed): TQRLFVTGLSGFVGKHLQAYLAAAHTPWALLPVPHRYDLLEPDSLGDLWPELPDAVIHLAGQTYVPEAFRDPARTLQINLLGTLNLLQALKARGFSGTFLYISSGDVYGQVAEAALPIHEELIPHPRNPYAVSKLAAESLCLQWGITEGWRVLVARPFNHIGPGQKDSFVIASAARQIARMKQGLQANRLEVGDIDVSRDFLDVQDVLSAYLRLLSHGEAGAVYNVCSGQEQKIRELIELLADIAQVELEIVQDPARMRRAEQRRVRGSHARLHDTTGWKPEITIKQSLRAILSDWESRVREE
Experiment: capillary electrophoresis and NMR of product
Type: biochemical
Conditions: with GDP-6-deoxy-D-lyxo-hexos-4-ulose; hydride donor; 37 °C, pH 7.5

Compound: NC(=O)C1=CN([C@@H]2O[C@H](COP(=O)(O)OP(=O)(O)OC[C@H]3O[C@@H](n4cnc5c(N)ncnc54)[C@H](OP(=O)(O)O)[C@@H]3O)[C@@H](O)[C@H]2O)C=CC1 [NADPH]
- capillary electrophoresis and NMR of product: in the presence of excess NADPH, His6-RMDPa catalyzed the conversion
